No end group written: not given here.
System: HECa10 cells
Assay: MTT test
Assay type: cell-based, murine
Settings: 24-h incubation, 0.1–100 µg/mL
Procedure: The study was conducted according to the procedure described by Rokicki et al.. HECa10 cells after 80–90% confluence were trypsinized (3 min, 37 °C), centrifuged (300 g, 5 min), counted, and plated in 96-well plates at a concentration of 1 × 10^4 cells/well. Then, 24 h after seeding, cells were washed with phosphate-buffered saline (PBS) solution and culture medium (Dulbecco’s Modified Eagle Medium (DMEM) + 10% fetal bovine serum (FBS) + antibiotics, all from Life Technologies, Warsaw, Poland) was added with test factors in concentrations: 0.1; 1; 5; 10; 50; 100 µg/mL). Then, 24 h after addition of the compounds, proliferation tests (MTT, NR, LDH) were performed. The color intensity was determined using a Fluostar Omega microplate reader. Results are presented as the mean ± SD of 3 independent experiments (n = 12).
Briefly, the cells were seeded in a 96-well culture plate at a concentration of 1 × 10^4 cells/well. Then, 24 h after seeding, the cells were rinsed twice with PBS (Life Technologies, Warsaw, Poland) and resuspended in fresh growth medium. Peptide fractions were added at concentrations of 0 (control), 0.1, 1, 5, 10, 50, and 100 µg/mL. After 24 h incubation with the proteins, the assessment of cell metabolic activity based on MTT tests was performed (MTT kit, Sigma Aldrich, Poznań, Poland). The absorbance was measured at 570 nm with a FLUOstar Omega reader (BMG Labtech GmbH, Ortenberg, Germany). The results are presented as the percentage of the control values (mean ± SD). Each assay was performed in triplicate (n = 18).

| Sequence | MTT test, HECa10 cell count compared to control |
| --- | --- |
| GEHGGAGMGGGQFQPV [GV-16, GEHGGAGMGGGQFQPV] | no statistically significant differences |
| GNPVGGVGHGTTGT [GT-14, GNPVGGVGHGTTGT] | no statistically significant differences |
| YGNPVGGVGH [YH-10, YGNPVGGVGH] | declined statistically significantly |
| GQLGEHGGAGMG [GG-12, GQLGEHGGAGMG] | no statistically significant differences |
| EQGFLPGPEESGR [ER-13, EQGFLPGPEESGR] | no statistically significant differences |
| RLARAGLAQ [RQ-9, RLARAGLAQ] | no statistically significant differences |
